From publication PMC3578829, “A Small Molecule (Pluripotin) as a Tool for Studying Cancer Stem Cell Biology: Proof of Concept” (PLoS ONE, 2013)

Tests used:
colon tumor lines = test: Cloning assay, all colon tumor lines; assay type: cell-based
Protocol: Culture dishes were transferred to a refrigerator (4°C) for 15 min, to room temperature for 10 min, and then to culture incubators. An upper layer of 0.5 ml culture medium was applied on day 0. Cultures were stained with MTT (1 mg/ml) for visualization and imaging at multiple time intervals (day 7 and 14). Cumulative counts of colonies (diameters, >60 µm) and cumulative volumes of CFU (diameters >120 µm) were determined with an Omnicon FAS-II (Bausch & Lomb, Rochester, NY) following calibration with an Omnicon test plate 3 and polystyrene microspheres embedded in soft agar matrix. The evaluable region of each culture dish (35 contiguous fields equivalent to 51% of the cell layer culture volume) was analyzed. Selective scoring of viable cell groups was achieved by adjustment of the instrument detection threshold to exclude images of nonstained cellular material and debris. The data was analyzed with Lotus Symphony software.

phospho-ERK1/2 = test: Immunoblotting of phospho-ERK1/2 relative to total ERK1/2 in HT29; assay type: cell-based
Protocol: To determine if SC-1 reached the same target in the treated colon tumor lines, changes in abundance of phospho-ERK 1/2 (p-ERK) and total ERK1/2 protein were evaluated by immunoblotting at time points similar to those previously studied (Figure 3A). In the HT29 treated tumor line, phospho-ERK 1/2 protein levels (relative to total ERK1/2 protein levels) were decreased in 5 min (67±0.06% of control value), reached a trough at 1 hr (46±0.06% of control), and remained decreased during the remainder of the time course (4 hrs, 68±0.10% of control value). Thus, it is likely SC-1 is reaching its cognate molecular target in the HT29 tumor line.
Standard protein electrophoretic techniques were followed using previously published protocols. For these studies, the colon lines were cultured for 5 days with and without treatments, harvested with trypsin (0.25% trypsin 0.5 mM EDTA, Invitrogen), counted and lysed with a whole cell lysis buffer (10 mM Tris, 1.0 mM EDTA, 50 mM NaCl, 0.5% deoxycholate, 0.5% NP-40, 0.5% SDS, 1.0 mM PMSF, and aprotonin and a cocktail of phosphatase and protease inhibitors). The whole cell lysate was heated to 100°C for 10 min and then fractionated (1000 g, 10 min, 4°C). Protein concentrations were measured with the Pierce BCA Protein Assay. Twenty to 40 µg of protein lysate per lane were loaded onto 10% SDS polyacrylamide gels (Ready-Gels, Biorad) with Laemmli buffer. For immunoblotting, the primary antibodies were diluted in Tween/Tris wash buffer (0.1 mM Tris-HCl pH 7.5, 2.5% Tween-20, 150 mM NaCl) and 5% BSA or nonfat dry milk and incubated overnight at 4°C. Visualization of specific bands was accomplished with an alkaline phosphatase-labeled secondary anti-immunoglobulin antibody and the ECF Chemifluorescent reagent (GE Amersham). Pixel intensity of the imaged bands was measured using STORM (GE Amersham) and Image Quant Software. Normalization for loading was accomplished by reprobing with an anti-actin antibody, quantification of pixel intensity and data normalization.

CHK2 = CHK2 (Homo sapiens, UniProt O96017); test: In vitro kinase inhibition assay (same assay as RSK2); assay type: biochemical
CHK2, sequence (O96017 whole entry, species assumed, the tested form may be a part): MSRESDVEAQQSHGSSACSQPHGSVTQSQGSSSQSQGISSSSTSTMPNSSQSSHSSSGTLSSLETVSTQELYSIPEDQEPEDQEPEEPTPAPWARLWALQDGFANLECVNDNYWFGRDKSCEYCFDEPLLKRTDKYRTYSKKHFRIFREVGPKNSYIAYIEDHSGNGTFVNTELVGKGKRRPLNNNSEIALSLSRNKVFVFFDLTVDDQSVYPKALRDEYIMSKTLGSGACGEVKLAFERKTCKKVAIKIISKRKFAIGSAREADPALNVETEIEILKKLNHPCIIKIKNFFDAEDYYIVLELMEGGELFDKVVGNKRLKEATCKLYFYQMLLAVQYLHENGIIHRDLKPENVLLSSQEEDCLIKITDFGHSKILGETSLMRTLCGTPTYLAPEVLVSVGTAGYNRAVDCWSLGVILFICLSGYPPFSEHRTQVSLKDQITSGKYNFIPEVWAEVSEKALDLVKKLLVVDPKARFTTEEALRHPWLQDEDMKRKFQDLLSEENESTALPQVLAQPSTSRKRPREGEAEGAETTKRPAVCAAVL
Protocol: (§1) RSK2 (90 kD ribosomal S6 kinase), a kinase with both a N- and C-terminal functional domains, phosphorylates multiple targets and is phosphorylated by ERK1/2, another SC-1 target. As a downstream effector, RSK2 signals many cellular behaviors including cell survival, growth, proliferation, and migration. […] Potential inhibitory activity of SC-1 on a random selection of other protein kinases (Aurora kinase B, CHK1, and CHK2) was also evaluated in the same assay and no effect was found (Figure 4A). To determine if activity of related (to RSK2) protein kinases in the AGC kinase family was inhibited by SC-1, further studies were conducted (Table 3). […] Because SC-1 inhibited these selected kinases in the micromolar range and the kinase assay is distinct from the one reporting data in Figure 4A, the positive EC50 value for Abl1 kinase was reported in Table 3 as well. These findings were consistent with predictions reported by Okram et al..
(§2) The RSK2 in vitro kinase inhibition assay utilized was a modification of protocols established by Nguyen et al.. Additional protocols that confirmed the results depicted in Figure 4 and evaluated kinase inhibitory activity in a random selection of protein kinases (Table 3) were conducted at Reaction Biology Corporation (Malvern, PA). This was a miniaturized ^33P-based screening assay.

Aurora kinase B = Aurora kinase B (Homo sapiens, UniProt Q96GD4); test: as above; assay type: biochemical
Aurora kinase B, sequence (Q96GD4 whole entry, species assumed): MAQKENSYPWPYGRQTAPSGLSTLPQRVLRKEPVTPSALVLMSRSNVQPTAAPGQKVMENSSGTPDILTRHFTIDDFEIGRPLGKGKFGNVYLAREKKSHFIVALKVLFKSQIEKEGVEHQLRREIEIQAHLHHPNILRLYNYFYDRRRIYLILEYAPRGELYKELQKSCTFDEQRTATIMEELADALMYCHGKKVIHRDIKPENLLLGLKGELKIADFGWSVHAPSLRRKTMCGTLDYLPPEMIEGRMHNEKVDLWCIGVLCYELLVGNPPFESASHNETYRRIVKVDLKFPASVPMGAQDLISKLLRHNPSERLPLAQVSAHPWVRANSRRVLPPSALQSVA
Protocol: as §1, §2

CHK1 = CHK1 (Homo sapiens, UniProt O14757); test: as above; assay type: biochemical
CHK1, sequence (O14757 whole entry, species assumed): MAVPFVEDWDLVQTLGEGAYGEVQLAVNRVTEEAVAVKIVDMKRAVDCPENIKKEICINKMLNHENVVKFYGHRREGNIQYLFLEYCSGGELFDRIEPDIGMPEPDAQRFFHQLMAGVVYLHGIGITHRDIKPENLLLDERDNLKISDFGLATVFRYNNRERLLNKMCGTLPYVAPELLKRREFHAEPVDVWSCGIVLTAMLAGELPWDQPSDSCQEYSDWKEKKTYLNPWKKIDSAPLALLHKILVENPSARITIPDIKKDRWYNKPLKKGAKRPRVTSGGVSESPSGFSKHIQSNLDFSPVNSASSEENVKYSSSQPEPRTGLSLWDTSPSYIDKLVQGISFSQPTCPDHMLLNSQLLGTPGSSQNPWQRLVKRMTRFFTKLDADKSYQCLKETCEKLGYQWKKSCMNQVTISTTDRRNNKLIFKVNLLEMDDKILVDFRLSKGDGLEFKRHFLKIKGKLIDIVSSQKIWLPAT
Protocol: as §1, §2

colon cell lines = test: NCI Anticancer Screen growth inhibition; assay type: cell-based; details: 2 day exposure; mean±s.e.m., n = 7 colon cell lines
Source text: (n = 6, paired Student’s t test, p = 0.02, Table S1). […] Finally, in a representative SC-1 sensitive tumor line (HCT-116), there was no difference in the distribution of the SC-1 treated cell population across the cell cycle compared to control treated cells (Figure S4).

KM12 = test: Limiting dilution tumorigenicity, s.c. xenograft without protein support; assay type: in vivo, NOD.SCID mice; details: KM12 treated 5 days with 0.1 µM SC-1
Protocol: (§3) Five day exposures were conducted.
(§4) Six week old female NOD.SCID mice were randomly assigned to each of 20 treatment arms (n = 5/group). Treated and control colon tumor lines were enzymatically harvested and counted prior to dilution in RPMI 1640 (at 10, 100, 1,000, 10,000 cells/inoculum) for subcutaneous injection into the axillary region using a volume of […]. Positive control groups were established such that tumor formation occurred in all mice in approximately one week thus confirming that all tumor lines studied were tumorigenic. Cell inocula for the positive control groups ranged from 1×10^6 to 2.5×10^6. Cell viability of the cell stocks was assessed by trypan blue exclusion prior to dilution for injection and was routinely found to be >95%. Tumor formation was monitored weekly using caliper measurements and the tumor mass was calculated as weight in mg = 1/2×(tumor length)×(tumor width)^2. All experiments were terminated at 120 days or when tumor weight exceeded 2000 mg for any individual mouse. In selected studies, tumor cells were resuspended in Matrigel (50% concentration, BD Biosciences) prior to injection.

HCT-15 = test: as above; assay type: in vivo, NOD.SCID mice; details: HCT-15 treated 5 days with 0.1 µM SC-1
Protocol: as §3, §4

## Cc1cc(Nc2ncc3c(n2)N(C)C(=O)N(c2cc(NC(=O)c4cccc(C(F)(F)F)c4)ccc2C)C3)n(C)n1 [SC-1]
Colon tumor lines; assay conducted using Matrigel instead of soft agar (data not shown)
  Cloning efficiency, all tumor lines: increased cloning efficiency
Colon tumor lines; soft agar, 0.1 µM SC-1 for five days, vs control treated cells
  Tumor lines with statistically significant increases in cumulative colony forming unit (CFU) mass: 5/7
phospho-ERK1/2; 0.1 µM SC-1, 5 min
  phospho-ERK 1/2 protein levels relative to total ERK1/2: 67±0.06 % of control
phospho-ERK1/2; 0.1 µM SC-1, 30 min
  phospho-ERK 1/2 protein levels relative to total ERK1/2: 56±0.06 % of control
phospho-ERK1/2; 0.1 µM SC-1, 1 hr
  phospho-ERK 1/2 protein levels relative to total ERK1/2: 46±0.06 % of control
phospho-ERK1/2; 0.1 µM SC-1, 4 hrs
  phospho-ERK 1/2 protein levels relative to total ERK1/2: 68±0.10 % of control
CHK2
  Inhibitory activity on kinase: no effect
Aurora kinase B
  Inhibitory activity on kinase: no effect
CHK1
  Inhibitory activity on kinase: no effect
Colon cell lines
  GI50: 91 ± 70 nM
KM12; 100 cells inoculated s.c.
  Tumor take rate: 0/5
KM12; 1000 cells inoculated s.c.
  Tumor take rate: 0/5
KM12; 10000 cells inoculated s.c.
  Tumor take rate: 1/5
HCT-15; 100 cells inoculated s.c.
  Tumor take rate: 0/5
HCT-15; 1000 cells inoculated s.c.
  Tumor take rate: 0/5
HCT-15; 10000 cells inoculated s.c.
  Tumor take rate: 0/5
